Assays:
[1] = cited from earlier work; for log P (octanol/water partition coefficient): values listed in the description, CRC Handbook or US National Library of Medicine tables; for Log P of antisolvent B: Table 1, CRC Handbook, values labelled * from U.S. National Library of Medicine
[2] = storage stability of the collected solid; format: physicochemical; settings: when properly stored, under inert atmosphere
Text: Moreover, after its isolation, the collected solid product can conveniently be stored for long periods of time, for instance up to 2 years when properly stored, (i.e. under inert atmosphere) in a form that is ready for use in the preparation of the MultiHance® formulation, by simple dissolution of the solid compound in the proper amount of a pharmaceutically acceptable aqueous solution, such as, for instance, the sterile water for injections (WFI) or any another proper aqueous medium, according to procedures commonly employed in the art.

[3] = water dissolution of the solid form; format: physicochemical
Text: As formerly discussed, the complex compound collected with the proposed process is endowed with a good stability, favorable workability and, especially, optimal water solubility.

[4] = solubility in solvent A (upper concentration limit); format: physicochemical
Text: Higher concentrations (of the gadobenate compound in the solvent A), for instance of at least 10% or, preferably, equal to or higher than 20%, are, however, preferred for the use of the invention, conveniently reducing organic solvent waste.

Row | Compound | log P (octanol/water partition coefficient) [1] | Log P of antisolvent B [1] | further results
1 | O=C1CCCCC1 [cyclohexanone] | 0.81 | – | –
2 | COCCOCCOC [diethylene glycol dimethyl ether] | −0.36 | −0.36* | –
3 | C1CCOC1 [tetrahydrofurane] | 0.46 | 0.46 | –
4 | CCC(C)=O [2-butanone] | 0.29 | – | –
5 | CC(=O)CC(C)C [methyl isobutyl ketone] | 0.56 | 0.56 | –
6 | O=C([O-])CN(CCN(CC(=O)[O-])CC(=O)[O-])CCN(CC(=O)O)C(COCc1ccccc1)C(=O)O.[Gd+3] (stereo not drawn) [gadobenate dimeglumine, gadolinium complex of the 4-carboxy-5,8,11-tris(carboxymethyl)-1-phenyl-2-oxa-5,8,11-triazatridecan-13-oic acid] | – | – | storage time of the collected solid product [2]: up to 2 years; water required for complete dissolution ([3]; at 25-30° C.): less than 1 mL of water for 1 g of product; time to complete ready dissolution in water ([3]; less than 1 mL of water for 1 g of product at 25-30° C.): less than five minutes; upper concentration limit consistent with solubility in methanol ([4]; solvent A methanol): about 50%; upper concentration limit based on solubility in water or aqueous solvent ([4]; solvent A water or aqueous solvent such as saline solution): about 70%
7 | COCC(C)O (stereo not drawn) [1-methoxy-2-propanol] | −0.437 | −0.44 | –

Source: patent publication US11014942B2, “Preparation of a solid form of gadobenate dimeglumine” (BRACCO IMAGING S.P.A., priority 2014, dated 2021)
